{
  "source": "PubChem BioAssay AID1963841",
  "about": "(Molecular Pharmacology Branch, DTP, NCI, 2024);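 further: spheroids exposed to compounds for seven days before readout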;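 on viability, T/C: 100% = DMSO vehicle control viability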",
  "tested_on": "439559-082-T-J2-PDC spheroid viability",
  "assay": "Anticancer human tumor 439559-082-T-J2-PDC patient-derived colon adenocarcinoma cell line growth inhibition [POLQ]",
  "conditions": "spheroids with HUVEC and MSC; for IC50: curve of first compound; for viability, T/C: stronger effect = lower value",
  "in_short": "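Complex spheroid viability model combining PDC tumour cells with endothelial (HUVEC) and MSC stromal cells. Novobiocin, ART-558 or RP6685 were tested singly and in combination with standard and investigational anticancer drugs. Each was titrated in half-log steps from near clinical Cmax, or from 10 microM where Cmax was unknown.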",
  "key": {"[1]": {"conditions": "second compound 0.0316 µM, first compound 0.0316 µM"}, "[2]": {"conditions": "second compound 0.0316 µM, first compound 0.1 µM"}, "[3]": {"conditions": "second compound 0.0316 µM, first compound 0.316 µM"}, "[4]": {"conditions": "second compound 0.0316 µM, first compound 1 µM"}, "[5]": {"conditions": "second compound 0.0316 µM, first compound 3.16 µM"}, "[6]": {"conditions": "second compound 0.0316 µM, first compound 10 µM"}, "[7]": {"conditions": "second compound 0.1 µM, first compound 0.0316 µM"}, "[8]": {"conditions": "second compound 0.1 µM, first compound 0.1 µM"}, "[9]": {"conditions": "second compound 0.1 µM, first compound 0.316 µM"}, "[10]": {"conditions": "second compound 0.1 µM, first compound 1 µM"}, "[11]": {"conditions": "second compound 0.1 µM, first compound 3.16 µM"}, "[12]": {"conditions": "second compound 0.1 µM, first compound 10 µM"}, "[13]": {"conditions": "second compound 0.316 µM, first compound 0.0316 µM"}, "[14]": {"conditions": "second compound 0.316 µM, first compound 0.1 µM"}, "[15]": {"conditions": "second compound 0.316 µM, first compound 0.316 µM"}, "[16]": {"conditions": "second compound 0.316 µM, first compound 1 µM"}, "[17]": {"conditions": "second compound 0.316 µM, first compound 3.16 µM"}, "[18]": {"conditions": "second compound 0.316 µM, first compound 10 µM"}, "[19]": {"conditions": "second compound 1 µM, first compound 0.0316 µM"}, "[20]": {"conditions": "second compound 1 µM, first compound 0.1 µM"}, "[21]": {"conditions": "second compound 1 µM, first compound 0.316 µM"}, "[22]": {"conditions": "second compound 1 µM, first compound 1 µM"}, "[23]": {"conditions": "second compound 1 µM, first compound 3.16 µM"}, "[24]": {"conditions": "second compound 1 µM, first compound 10 µM"}, "[25]": {"conditions": "second compound 3.16 µM, first compound 0.0316 µM"}, "[26]": {"conditions": "second compound 3.16 µM, first compound 0.1 µM"}, "[27]": {"conditions": "second compound 3.16 µM, first compound 0.316 µM"}, "[28]": {"conditions": "second compound 3.16 µM, first compound 1 µM"}, "[29]": {"conditions": "second compound 3.16 µM, first compound 3.16 µM"}, "[30]": {"conditions": "second compound 3.16 µM, first compound 10 µM"}, "[31]": {"conditions": "second compound 10 µM, first compound 0.0316 µM"}, "[32]": {"conditions": "second compound 10 µM, first compound 0.1 µM"}, "[33]": {"conditions": "second compound 10 µM, first compound 0.316 µM"}, "[34]": {"conditions": "second compound 10 µM, first compound 1 µM"}, "[35]": {"conditions": "second compound 10 µM, first compound 3.16 µM"}, "[36]": {"conditions": "second compound 10 µM, first compound 10 µM"}},
  "data": [
    {"smiles": "C#Cc1c(F)ccc2cc(O)cc(-c3ncc4c(N5CC6CCC(C5)N6)nc(OCC56CCCN5CC(F)C6)nc4c3F)c12", "note": "(centres undefined) + Nc1ccc(C#CCN(C(=O)Cc2ncc(C(F)(F)F)cc2C(F)(F)F)c2ccc(F)cc2)nn1", "values": [
      {"measurement": "IC50", "setting": "second compound 0.0316 µM", "result": "> 10", "unit": "µM"},
      {"measurement": "IC50", "setting": "second compound 0.1 µM", "result": "> 10", "unit": "µM"},
      {"measurement": "IC50", "setting": "second compound 0.316 µM", "result": "> 10", "unit": "µM"},
      {"measurement": "IC50", "setting": "second compound 1 µM", "result": "> 10", "unit": "µM"},
      {"measurement": "IC50", "setting": "second compound 3.16 µM", "result": "> 10", "unit": "µM"},
      {"measurement": "IC50", "setting": "second compound 10 µM", "result": "> 10", "unit": "µM"},
      {"measurement": "viability, T/C", "setting": "[1]", "result": 94.9, "unit": "%"},
      {"measurement": "viability, T/C", "setting": "[2]", "result": 84.2, "unit": "%"},
      {"measurement": "viability, T/C", "setting": "[3]", "result": 71.5, "unit": "%"},
      {"measurement": "viability, T/C", "setting": "[4]", "result": 73.7, "unit": "%"},
      {"measurement": "viability, T/C", "setting": "[5]", "result": 71.1, "unit": "%"},
      {"measurement": "viability, T/C", "setting": "[6]", "result": 70.2, "unit": "%"},
      {"measurement": "viability, T/C", "setting": "[7]", "result": 103, "unit": "%"},
      {"measurement": "viability, T/C", "setting": "[8]", "result": 77.3, "unit": "%"},
      {"measurement": "viability, T/C", "setting": "[9]", "result": 68, "unit": "%"},
      {"measurement": "viability, T/C", "setting": "[10]", "result": 82, "unit": "%"},
      {"measurement": "viability, T/C", "setting": "[11]", "result": 74.5, "unit": "%"},
      {"measurement": "viability, T/C", "setting": "[12]", "result": 54.6, "unit": "%"},
      {"measurement": "viability, T/C", "setting": "[13]", "result": 81.3, "unit": "%"},
      {"measurement": "viability, T/C", "setting": "[14]", "result": 87.2, "unit": "%"},
      {"measurement": "viability, T/C", "setting": "[15]", "result": 71.9, "unit": "%"},
      {"measurement": "viability, T/C", "setting": "[16]", "result": 69.9, "unit": "%"},
      {"measurement": "viability, T/C", "setting": "[17]", "result": 70.6, "unit": "%"},
      {"measurement": "viability, T/C", "setting": "[18]", "result": 64.9, "unit": "%"},
      {"measurement": "viability, T/C", "setting": "[19]", "result": 105, "unit": "%"},
      {"measurement": "viability, T/C", "setting": "[20]", "result": 82.7, "unit": "%"},
      {"measurement": "viability, T/C", "setting": "[21]", "result": 62.3, "unit": "%"},
      {"measurement": "viability, T/C", "setting": "[22]", "result": 60.9, "unit": "%"},
      {"measurement": "viability, T/C", "setting": "[23]", "result": 75.2, "unit": "%"},
      {"measurement": "viability, T/C", "setting": "[24]", "result": 65, "unit": "%"},
      {"measurement": "viability, T/C", "setting": "[25]", "result": 79.9, "unit": "%"},
      {"measurement": "viability, T/C", "setting": "[26]", "result": 84, "unit": "%"},
      {"measurement": "viability, T/C", "setting": "[27]", "result": 68.4, "unit": "%"},
      {"measurement": "viability, T/C", "setting": "[28]", "result": 59.1, "unit": "%"},
      {"measurement": "viability, T/C", "setting": "[29]", "result": 60.4, "unit": "%"},
      {"measurement": "viability, T/C", "setting": "[30]", "result": 62.7, "unit": "%"},
      {"measurement": "viability, T/C", "setting": "[31]", "result": 92.7, "unit": "%"},
      {"measurement": "viability, T/C", "setting": "[32]", "result": 76.9, "unit": "%"},
      {"measurement": "viability, T/C", "setting": "[33]", "result": 76.5, "unit": "%"},
      {"measurement": "viability, T/C", "setting": "[34]", "result": 72, "unit": "%"},
      {"measurement": "viability, T/C", "setting": "[35]", "result": 65.2, "unit": "%"},
      {"measurement": "viability, T/C", "setting": "[36]", "result": 66.4, "unit": "%"}
    ]},
    {"smiles": "O=C(Nc1ccc(O)c(NS(=O)(=O)c2ccc(F)cc2)c1)c1ccc(-c2ccccc2)cc1", "note": "+ Nc1ccc(C#CCN(C(=O)Cc2ncc(C(F)(F)F)cc2C(F)(F)F)c2ccc(F)cc2)nn1", "values": [
      {"measurement": "IC50", "setting": "second compound 0.0316 µM", "result": "> 10", "unit": "µM"},
      {"measurement": "IC50", "setting": "second compound 0.1 µM", "result": "> 10", "unit": "µM"},
      {"measurement": "IC50", "setting": "second compound 0.316 µM", "result": "> 10", "unit": "µM"},
      {"measurement": "IC50", "setting": "second compound 1 µM", "result": "> 10", "unit": "µM"},
      {"measurement": "IC50", "setting": "second compound 3.16 µM", "result": "> 10", "unit": "µM"},
      {"measurement": "IC50", "setting": "second compound 10 µM", "result": "> 10", "unit": "µM"},
      {"measurement": "viability, T/C", "setting": "[1]", "result": 93, "unit": "%"},
      {"measurement": "viability, T/C", "setting": "[2]", "result": 97.5, "unit": "%"},
      {"measurement": "viability, T/C", "setting": "[3]", "result": 98.8, "unit": "%"},
      {"measurement": "viability, T/C", "setting": "[4]", "result": 93.3, "unit": "%"},
      {"measurement": "viability, T/C", "setting": "[5]", "result": 96.3, "unit": "%"},
      {"measurement": "viability, T/C", "setting": "[6]", "result": 103, "unit": "%"},
      {"measurement": "viability, T/C", "setting": "[7]", "result": 99, "unit": "%"},
      {"measurement": "viability, T/C", "setting": "[8]", "result": 103, "unit": "%"},
      {"measurement": "viability, T/C", "setting": "[9]", "result": 92.9, "unit": "%"},
      {"measurement": "viability, T/C", "setting": "[10]", "result": 97, "unit": "%"},
      {"measurement": "viability, T/C", "setting": "[11]", "result": 111, "unit": "%"},
      {"measurement": "viability, T/C", "setting": "[12]", "result": 106, "unit": "%"},
      {"measurement": "viability, T/C", "setting": "[13]", "result": 105, "unit": "%"},
      {"measurement": "viability, T/C", "setting": "[14]", "result": 104, "unit": "%"},
      {"measurement": "viability, T/C", "setting": "[15]", "result": 94.8, "unit": "%"},
      {"measurement": "viability, T/C", "setting": "[16]", "result": 96.9, "unit": "%"},
      {"measurement": "viability, T/C", "setting": "[17]", "result": 87.9, "unit": "%"},
      {"measurement": "viability, T/C", "setting": "[18]", "result": 92.5, "unit": "%"},
      {"measurement": "viability, T/C", "setting": "[19]", "result": 93.5, "unit": "%"},
      {"measurement": "viability, T/C", "setting": "[20]", "result": 103, "unit": "%"},
      {"measurement": "viability, T/C", "setting": "[21]", "result": 89.7, "unit": "%"},
      {"measurement": "viability, T/C", "setting": "[22]", "result": 90.7, "unit": "%"},
      {"measurement": "viability, T/C", "setting": "[23]", "result": 99.6, "unit": "%"},
      {"measurement": "viability, T/C", "setting": "[24]", "result": 96.8, "unit": "%"},
      {"measurement": "viability, T/C", "setting": "[25]", "result": 89.6, "unit": "%"},
      {"measurement": "viability, T/C", "setting": "[26]", "result": 107, "unit": "%"},
      {"measurement": "viability, T/C", "setting": "[27]", "result": 100, "unit": "%"},
      {"measurement": "viability, T/C", "setting": "[28]", "result": 99.6, "unit": "%"},
      {"measurement": "viability, T/C", "setting": "[29]", "result": 94.2, "unit": "%"},
      {"measurement": "viability, T/C", "setting": "[30]", "result": 91.3, "unit": "%"},
      {"measurement": "viability, T/C", "setting": "[31]", "result": 114, "unit": "%"},
      {"measurement": "viability, T/C", "setting": "[32]", "result": 101, "unit": "%"},
      {"measurement": "viability, T/C", "setting": "[33]", "result": 102, "unit": "%"},
      {"measurement": "viability, T/C", "setting": "[34]", "result": 91.5, "unit": "%"},
      {"measurement": "viability, T/C", "setting": "[35]", "result": 113, "unit": "%"},
      {"measurement": "viability, T/C", "setting": "[36]", "result": 101, "unit": "%"}
    ]}
  ]
}
